According to ChEMBL document CHEMBL3638976, “Azetidine derivatives” (2014):

How the values were obtained:
[1] = target: Cathepsin S (Homo sapiens, UniProt P25774); assay: (§1) Enzyme Inhibition Assay: Enzyme activity is measured by observing the increase in fluorescence intensity caused by cleavage of a peptide substrate containing a fluorophore whose emission is quenched in the intact peptide.Assay buffer: 100 mM potassium phosphate pH 6.5, EDTA-Na 5 mM, Triton X-100 0.001%, DTT 5 mM.Enzymes (all at 1 nM): human and mouse Cathepsin S, Cat K, Cat B, Cat L.Substrate (20 μM): Z-Val-Val-Arg-AMC, except for Cat K which uses Z-Leu-Arg-AMC (both from Bachem).Z=Benzyloxycarbonyl.AMC=7-Amino-4-Methyl-Coumarin.DTT=dithiothreitol.Final volume: 100 μL.Excitation 360 nm, Emission 465 nm.Enzyme is added to the substance dilutions in 96-well microtitre plates and the reaction is started with substrate. Fluorescence emission is measured over 20 minutes, during which time a linear increase is observed in the absence of inhibitor.
Cathepsin S, sequence (P25774 whole entry): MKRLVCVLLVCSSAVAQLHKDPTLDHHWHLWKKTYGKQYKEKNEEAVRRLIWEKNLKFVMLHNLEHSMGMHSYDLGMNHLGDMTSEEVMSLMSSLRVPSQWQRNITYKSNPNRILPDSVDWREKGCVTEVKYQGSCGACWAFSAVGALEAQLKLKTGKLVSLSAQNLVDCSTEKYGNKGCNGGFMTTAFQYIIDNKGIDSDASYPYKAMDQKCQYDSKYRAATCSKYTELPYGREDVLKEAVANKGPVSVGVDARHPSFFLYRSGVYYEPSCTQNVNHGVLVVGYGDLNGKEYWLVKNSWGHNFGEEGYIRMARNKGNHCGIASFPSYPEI

[2] = target: Procathepsin L (Homo sapiens, UniProt P07711); assay: as §1
Procathepsin L, sequence (P07711 whole entry): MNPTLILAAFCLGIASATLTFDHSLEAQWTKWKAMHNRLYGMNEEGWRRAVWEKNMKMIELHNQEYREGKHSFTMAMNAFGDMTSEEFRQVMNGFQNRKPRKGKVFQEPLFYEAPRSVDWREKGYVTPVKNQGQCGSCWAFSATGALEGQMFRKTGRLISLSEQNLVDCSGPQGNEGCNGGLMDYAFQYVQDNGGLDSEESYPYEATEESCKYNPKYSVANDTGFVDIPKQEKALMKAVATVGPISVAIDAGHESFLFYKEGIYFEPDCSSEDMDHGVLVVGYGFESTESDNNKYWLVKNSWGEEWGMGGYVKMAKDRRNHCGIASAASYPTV

IC50 [1] | IC50 [2] | SMILES
5.5 nM | 188 nM | C[C@H](Oc1ccc(S(=O)(=O)[C@@H]2C[C@@H](C(=O)NC3(C#N)CC3)N(C(=O)C3(c4ncc(Br)cc4F)CCN3C(=O)OC(C)(C)C)C2)c(Cl)c1)C(F)(F)F (stereo partly drawn)
2.13 nM | 16.6 nM | C[C@H](Oc1ccc(S(=O)(=O)[C@@H]2C[C@@H](C(=O)NC3(C#N)CC3)N(C(=O)C3(c4ncc(Br)cc4F)CN(C)C3)C2)c(Cl)c1)C(F)(F)F
1.55 nM | 523 nM | Cc1cc(-c2ccc(S(=O)(=O)[C@@H]3C[C@@H](C(=O)NC4(C#N)CC4)N(C(=O)C4(c5ncc(Cl)cc5F)CCN4C(=O)OC(C)(C)C)C3)c(Cl)c2)ccn1 (stereo partly drawn)
1.12 nM | 1160 nM | Cn1cc(-c2ccc(S(=O)(=O)[C@@H]3C[C@@H](C(=O)NC4(C#N)CC4)N(C(=O)C4(c5ncc(Br)cc5F)CCN4C(=O)OC(C)(C)C)C3)c(Cl)c2)cn1 (stereo partly drawn)
